Among the test systems are UACC-62; SR; OVCAR-4; SK-MEL-5; M14; SF-539; UACC-257; HCT-116; OVCAR-3; HCC 2998; Malme-3M; UO-31; NCI-H522; MDA-MB-231; EKVX; HT-29; MDA-N; U-251; SF-295; T47D.
Holding throughout (assay): growth of human tumour cells (NCI), 48 h

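Where inhibition never reached the appropriate level, the endpoint shown equals the highest concentration tested. Otherwise, values were interpolated linearly from a five-concentration, 48-hour dose response in 96-well plates. At the GI50, growth is halved.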 Activity calls are given as the source filed them. No stated cut-off is given here; in the data, active = GI50 up to about 1.1 µM and inactive = higher.

For `Cc1ccc(O)c(-c2csc(NCN3CCN(CNc4nc(-c5cc(C)ccc5O)cs4)CC3)n2)c1`, the GI50 with UACC-62, with SR, with OVCAR-4, with SK-MEL-5, with M14 and in the assay on SF-539 was > 100 µM (inactive) throughout. Moreover, the GI50 in the assay on UACC-257, in the assay with HCT-116, with OVCAR-3, with HCC 2998, in the assay on Malme-3M and with UO-31 was > 100 µM (inactive) throughout. For the same molecule, the GI50 in the assay with NCI-H522, in the assay with MDA-MB-231, with EKVX, in the assay with HT-29, in the assay on MDA-N and with U-251 was > 100 µM (inactive) in each case. In addition, the GI50 with SF-295 is > 100 µM (inactive).
For the molecule `CCc1nc2ccc(NCCN(C)C)c3c(=O)c4ccccc4n1c23`, the GI50 in the assay on UACC-62 was 2.14 µM (inactive); in the assay on SR, 0.193 µM (active); in the assay on OVCAR-4, 1.02 µM (active); with T47D, 2.59 µM (inactive); in the assay with M14, 1.52 µM (inactive); with SF-539 it was 1.67 µM (inactive). Moreover, the GI50 with UACC-257 was 2.48 µM (inactive); with HCT-116, 0.337 µM (active); in the assay with OVCAR-3, 0.979 µM (active); in the assay on HCC 2998, 0.762 µM (active); with Malme-3M, 1.61 µM (inactive); in the assay on UO-31, 1.24 µM (inactive). Moreover, the GI50 is 0.946 µM (active) in the assay with NCI-H522; 0.135 µM (active) in the assay on MDA-MB-231; 1.17 µM (inactive) in the assay on EKVX; 0.489 µM (active) in the assay on HT-29; 0.796 µM (active) in the assay on U-251; 0.741 µM (active) with SF-295.
For `COC(=O)C1=CC2C(=O)c3ccccc3C1(c1ccccc1)N2C1CCCCC1` (stereo not given), the GI50 is 17.1 µM (inactive) in the assay with OVCAR-4; 10.1 µM (inactive) with SK-MEL-5; 20 µM (inactive) with M14; 20.6 µM (inactive) in the assay on SF-539; 12.4 µM (inactive) in the assay on UACC-257; 25.1 µM (inactive) in the assay on HCT-116. Further, the GI50 is 23.6 µM (inactive) in the assay on OVCAR-3; 3.15 µM (inactive) in the assay with HCC 2998; 22.6 µM (inactive) with Malme-3M; 15.1 µM (inactive) in the assay with UO-31; 27.9 µM (inactive) in the assay with NCI-H522; 17 µM (inactive) with MDA-MB-231. The GI50 was 34.9 µM (inactive) in the assay on EKVX; 14.8 µM (inactive) in the assay with HT-29; 23.7 µM (inactive) with MDA-N; 16.6 µM (inactive) with U-251; 16 µM (inactive) in the assay with SF-295.
For the molecule `COc1cc2nc(-c3cccs3)nc(Cl)c2cc1OC`, the GI50 in the assay on UACC-62 was > 100 µM (inactive); in the assay on SR, 0.339 µM (active); in the assay with OVCAR-4, 52.5 µM (inactive); in the assay on T47D, > 100 µM (inactive); in the assay on SK-MEL-5 it was 12 µM (inactive); in the assay with M14 it was > 100 µM (inactive). Further, the GI50 is > 100 µM (inactive) in the assay on SF-539; 68.9 µM (inactive) with UACC-257; > 100 µM (inactive) in the assay on HCT-116; 93.3 µM (inactive) in the assay with OVCAR-3; > 100 µM (inactive) in the assay on Malme-3M; > 100 µM (inactive) in the assay with UO-31. Further, the GI50 in the assay on NCI-H522 is > 100 µM (inactive); with MDA-MB-231, > 100 µM (inactive); in the assay on EKVX, 18.6 µM (inactive); with HT-29 it was 61.7 µM (inactive); in the assay on U-251 it was > 100 µM (inactive); in the assay with SF-295, > 100 µM (inactive).
On to `CCOC(=O)CCC(NC(=O)c1ccc(Nc2nc3cc(C(F)(F)F)ccc3nc2-c2ccccc2)cc1)C(=O)OCC` (stereo not given), for which the GI50 in the assay with UACC-62 was 13.3 µM (inactive); in the assay on SR, 13.2 µM (inactive); in the assay on OVCAR-4 it was 21.9 µM (inactive); in the assay on T47D it was 16.4 µM (inactive); in the assay with SK-MEL-5, 18.6 µM (inactive); with M14, > 100 µM (inactive). The GI50 in the assay on SF-539 is 31.3 µM (inactive); with UACC-257 it was 22.8 µM (inactive); in the assay on HCT-116, 26.4 µM (inactive); with OVCAR-3, > 100 µM (inactive); in the assay on HCC 2998, 24.3 µM (inactive); in the assay with Malme-3M it was 28.2 µM (inactive). Besides, the GI50 in the assay with UO-31 was 14.6 µM (inactive); in the assay on MDA-MB-231, 20.3 µM (inactive); in the assay on EKVX, 20.2 µM (inactive); with HT-29 it was 25.8 µM (inactive); in the assay on U-251, 25.3 µM (inactive); in the assay on SF-295, 33.4 µM (inactive).
Consider `CCCO/S(=N\S(=O)(=O)c1ccccc1)c1ccccc1[N+](=O)[O-]` (stereo not given), for which the GI50 in the assay on UACC-62, with SR, with OVCAR-4, in the assay on SK-MEL-5, in the assay with M14 and in the assay on SF-539 was > 100 µM (inactive) in each case. For the same molecule, the GI50 in the assay on UACC-257, in the assay with HCT-116, in the assay on OVCAR-3, with HCC 2998, in the assay on Malme-3M and with UO-31 was > 100 µM (inactive) each time. Further, the GI50 in the assay with NCI-H522, in the assay on EKVX, with HT-29, in the assay with U-251 and in the assay with SF-295 was > 100 µM (inactive) in each case.
Consider `Cc1c(Cl)ccc2c1NC(=O)C2(O)C1Cc2ccccc2C1=O` (stereo not given), for which the GI50 in the assay with UACC-62 is 72.6 µM (inactive); in the assay with SR it was 27.9 µM (inactive); in the assay with OVCAR-4, 86.5 µM (inactive); with SK-MEL-5, > 100 µM (inactive); with M14 it was > 100 µM (inactive); with SF-539, > 100 µM (inactive). Besides, the GI50 was > 100 µM (inactive) in the assay with UACC-257; 62.7 µM (inactive) in the assay on HCT-116; > 100 µM (inactive) in the assay on OVCAR-3; 32.7 µM (inactive) in the assay on HCC 2998; > 100 µM (inactive) in the assay with Malme-3M; 92.9 µM (inactive) in the assay on UO-31. Also, the GI50 in the assay on NCI-H522 is > 100 µM (inactive); in the assay on EKVX, > 100 µM (inactive); in the assay with HT-29 it was > 100 µM (inactive); in the assay with U-251, 27.7 µM (inactive); in the assay with SF-295 it was > 100 µM (inactive).
Take `O=C1NC(=S)N/C1=C/c1c(-c2ccccc2)[nH]c2ccccc12`: the GI50 in the assay with UACC-62 is 11.7 µM (inactive); with SR it was 6.32 µM (inactive); in the assay with OVCAR-4 it was 16.1 µM (inactive); in the assay on SK-MEL-5, 13 µM (inactive); in the assay on SF-539, 17.4 µM (inactive); with UACC-257 it was 15.6 µM (inactive). Moreover, the GI50 was 14.3 µM (inactive) in the assay with HCT-116; 16.1 µM (inactive) in the assay on OVCAR-3; 21.1 µM (inactive) in the assay on HCC 2998; 13.5 µM (inactive) in the assay on Malme-3M; 9.23 µM (inactive) with UO-31; 13.2 µM (inactive) in the assay with NCI-H522. Moreover, the GI50 was 13.7 µM (inactive) in the assay on MDA-MB-231; 14.5 µM (inactive) with EKVX; 16.3 µM (inactive) with HT-29; 14.9 µM (inactive) in the assay with MDA-N; 15.7 µM (inactive) in the assay with U-251; 12.8 µM (inactive) in the assay with SF-295.
On to `Nc1cc2[nH]c(=O)c3cc(Cl)ccc3c2cc1Cl`, for which the GI50 was 16.7 µM (inactive) in the assay with UACC-62; 2.44 µM (inactive) with SR; 31.9 µM (inactive) in the assay on OVCAR-4; 12.3 µM (inactive) in the assay on T47D; 12.1 µM (inactive) in the assay on SK-MEL-5; 36.8 µM (inactive) in the assay with M14. The GI50 in the assay with SF-539 was 12.2 µM (inactive); in the assay on UACC-257 it was 21.1 µM (inactive); in the assay with HCT-116, 5.15 µM (inactive); in the assay with OVCAR-3, 12.4 µM (inactive); in the assay with HCC 2998, 23.7 µM (inactive); in the assay with Malme-3M, 14.7 µM (inactive). Moreover, the GI50 with UO-31 was 10.2 µM (inactive); with NCI-H522, 13.4 µM (inactive); with MDA-MB-231, 14.1 µM (inactive); in the assay on EKVX, 2.52 µM (inactive); in the assay on HT-29 it was 22.3 µM (inactive); with U-251, 10.9 µM (inactive). In addition, the GI50 in the assay with SF-295 was 9.12 µM (inactive).
Regarding `C=CCCCN1CCCC(C)C1=S` (stereo not given), the GI50 in the assay on UACC-62, with SR, in the assay with OVCAR-4, in the assay on SK-MEL-5, in the assay on M14 and in the assay with SF-539 was > 100 µM (inactive) each time. Moreover, the GI50 in the assay on UACC-257, with HCT-116, with OVCAR-3, in the assay on HCC 2998, with Malme-3M and in the assay with UO-31 was > 100 µM (inactive) in each case. Further, the GI50 in the assay with NCI-H522, with EKVX, with HT-29, in the assay on U-251 and in the assay with SF-295 was > 100 µM (inactive) in each case.
In the case of `CC1(C)O[C@@H](CBr)C[C@H](C[C@H]2C[C@@H](O)C[C@@H](CCOCc3ccccc3)O2)O1`, the GI50 in the assay on UACC-62 is 18.4 µM (inactive); in the assay with SR, 27.7 µM (inactive); in the assay with OVCAR-4, 21.6 µM (inactive); in the assay with T47D it was 14.9 µM (inactive); in the assay on SK-MEL-5 it was 30.3 µM (inactive); in the assay with M14 it was 23.5 µM (inactive). In addition, the GI50 with UACC-257 was 19 µM (inactive); with HCT-116, 21.3 µM (inactive); in the assay on OVCAR-3 it was 19.4 µM (inactive); in the assay with HCC 2998 it was 24.6 µM (inactive); in the assay with Malme-3M, 17.3 µM (inactive); in the assay with UO-31 it was 20.7 µM (inactive). The GI50 is 16.4 µM (inactive) in the assay with NCI-H522; 40.3 µM (inactive) with MDA-MB-231; 17.8 µM (inactive) in the assay with EKVX; 31.8 µM (inactive) in the assay on U-251; 17 µM (inactive) in the assay on SF-295.
